Consider 21 compounds from patent US6683181B2, “Pyrroloquinolones as antiviral agents” (Pharmacia and Upjohn Comapny, priority 2000, dated 2004).

SMILES strings stand for the structures.

One data set has as its target T1, CMV Polymerase (Human cytomegalovirus, UniProt P08546).
T1 construct: made in house; host or cells: recombinant baculovirus-infected SF-9 cells
The data set can be described thus: HCMV polymerase scintillation proximity assay (modified version). In kind it is biochemical. Particulars: modified SPA assay; compounds diluted in 100% DMSO; 4.5 mM DTT. How it is done: (§1) The HCMV polymerase assay is performed using a scintillation proximity assay (SPA) as described in several references, such as N. D. Cook, et al., Pharmaceutical Manufacturing International, pages 49-53 (1992); K. Takeuchi, Laboratory Practice, September issue (1992); U.S. Pat. No. 4,568,649 (1986); which are incorporated by reference herein. Reactions are performed in 96-well plates. The assay is conducted in 100 μl volume with 5.4 mM HEPES (pH 7.5), 11.7 mM KCl, 4.5 mM MgCl2, 0.36 mg/ml BSA, and 90 nM ^3H-dTTP. Assays are run with and without CHAPS, (3-[(3-Cholamidopropyl)-dimethylammonio]-1-propane-sulfonate) at a final concentration of 2 mM. HCMV polymerase is diluted in enzyme dilution buffer containing 50% glycerol, 250 mM NaCl, 10 mM HEPES (pH 7.5), 100 μg/ml BSA, and 0.01% sodium azide. The HCMV polymerase, which is expressed in recombinant baculovirus-infected SF-9 cells and purified according to literature procedures, is added at 10% (or 10 μl) of the final reaction volume, i.e., 100 μl. Compounds are diluted in 50% DMSO and 10 μl are added to each well. Control wells contain an equivalent concentration of DMSO. Unless noted otherwise, reactions are initiated via the addition of 6 nM biotinylated poly(dA)-oligo(dT) template/primer to reaction mixtures containing the enzyme, substrate, and compounds of interest. Plates are incubated in a 25° C. or 37° C. H2O bath and terminated via the addition of 40 μl/reaction of 0.5 M EDTA (pH 8) per well. Reactions are terminated within the time-frame during which substrate incorporation is linear and varied depending upon the enzyme and conditions used, i.e., 30 min. for HCMV polymerase. Ten μl of streptavidin-SPA beads (20 mg/ml in PBS/10% glycerol) are added following termination of the reaction. Plates are incubated 10 min. at 37° C., then equilibrated to room temperature, and counted on a Packard Topcount. Linear regressions are performed and IC50's are calculated using computer software.
A modified version of the above HCMV polymerase assay is performed as described above, but with the following changes: Compounds are diluted in 100% DMSO until final dilution into assay buffer. In the previous assay, compounds are diluted in 50% DMSO. 4.5 mM dithiotherotol (DTT) is added to the polymerase buffer.

The target of another data set is HSV Polymerase (Human herpesvirus 1, UniProt P04293). The data set can be described thus: HSV polymerase assay. In kind it is biochemical. How it is done:
[Worded in the source for another target; used here, by the source, with some conditions changed.] as §1, with “software. […]” for “software.”

Another data set has as its target VZV Polymerase (Varicella-zoster virus, UniProt P09252). The data set can be described thus: VZV polymerase assay. In kind it is biochemical. How it is done:
[Worded in the source for another target; used here, by the source, with some conditions changed.] as §1, with “software. […]” for “software.”

T1 sequence (P08546 whole entry): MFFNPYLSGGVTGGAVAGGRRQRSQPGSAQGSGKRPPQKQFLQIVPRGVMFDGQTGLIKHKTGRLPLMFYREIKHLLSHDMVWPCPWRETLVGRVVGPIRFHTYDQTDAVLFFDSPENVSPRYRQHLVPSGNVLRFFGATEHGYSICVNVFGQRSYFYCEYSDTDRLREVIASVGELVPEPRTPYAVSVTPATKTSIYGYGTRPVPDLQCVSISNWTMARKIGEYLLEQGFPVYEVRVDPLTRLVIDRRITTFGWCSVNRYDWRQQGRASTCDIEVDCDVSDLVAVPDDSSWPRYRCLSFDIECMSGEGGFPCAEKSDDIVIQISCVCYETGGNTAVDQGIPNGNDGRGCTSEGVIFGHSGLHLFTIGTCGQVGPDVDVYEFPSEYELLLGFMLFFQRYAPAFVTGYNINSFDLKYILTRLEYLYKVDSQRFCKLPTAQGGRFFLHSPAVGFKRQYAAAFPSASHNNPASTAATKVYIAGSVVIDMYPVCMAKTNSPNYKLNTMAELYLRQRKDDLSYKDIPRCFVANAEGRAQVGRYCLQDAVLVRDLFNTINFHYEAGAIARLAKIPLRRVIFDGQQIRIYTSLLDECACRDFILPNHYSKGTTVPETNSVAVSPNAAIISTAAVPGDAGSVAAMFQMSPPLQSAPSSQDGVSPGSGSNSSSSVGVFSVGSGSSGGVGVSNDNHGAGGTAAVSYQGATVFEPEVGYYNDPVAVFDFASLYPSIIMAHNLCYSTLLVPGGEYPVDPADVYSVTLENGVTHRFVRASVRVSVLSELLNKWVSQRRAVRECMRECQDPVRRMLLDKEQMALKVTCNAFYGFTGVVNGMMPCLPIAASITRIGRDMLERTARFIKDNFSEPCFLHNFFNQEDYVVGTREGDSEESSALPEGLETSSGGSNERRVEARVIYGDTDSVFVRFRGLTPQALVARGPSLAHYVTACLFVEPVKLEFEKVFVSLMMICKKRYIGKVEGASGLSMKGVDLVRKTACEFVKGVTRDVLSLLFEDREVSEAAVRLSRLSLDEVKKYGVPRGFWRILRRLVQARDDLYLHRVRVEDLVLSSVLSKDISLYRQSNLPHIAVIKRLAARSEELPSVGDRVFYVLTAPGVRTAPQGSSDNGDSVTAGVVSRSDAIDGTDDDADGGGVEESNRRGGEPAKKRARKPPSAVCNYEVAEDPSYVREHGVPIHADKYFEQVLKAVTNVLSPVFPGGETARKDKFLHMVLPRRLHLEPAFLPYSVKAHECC
HSV Polymerase, sequence (P04293 whole entry): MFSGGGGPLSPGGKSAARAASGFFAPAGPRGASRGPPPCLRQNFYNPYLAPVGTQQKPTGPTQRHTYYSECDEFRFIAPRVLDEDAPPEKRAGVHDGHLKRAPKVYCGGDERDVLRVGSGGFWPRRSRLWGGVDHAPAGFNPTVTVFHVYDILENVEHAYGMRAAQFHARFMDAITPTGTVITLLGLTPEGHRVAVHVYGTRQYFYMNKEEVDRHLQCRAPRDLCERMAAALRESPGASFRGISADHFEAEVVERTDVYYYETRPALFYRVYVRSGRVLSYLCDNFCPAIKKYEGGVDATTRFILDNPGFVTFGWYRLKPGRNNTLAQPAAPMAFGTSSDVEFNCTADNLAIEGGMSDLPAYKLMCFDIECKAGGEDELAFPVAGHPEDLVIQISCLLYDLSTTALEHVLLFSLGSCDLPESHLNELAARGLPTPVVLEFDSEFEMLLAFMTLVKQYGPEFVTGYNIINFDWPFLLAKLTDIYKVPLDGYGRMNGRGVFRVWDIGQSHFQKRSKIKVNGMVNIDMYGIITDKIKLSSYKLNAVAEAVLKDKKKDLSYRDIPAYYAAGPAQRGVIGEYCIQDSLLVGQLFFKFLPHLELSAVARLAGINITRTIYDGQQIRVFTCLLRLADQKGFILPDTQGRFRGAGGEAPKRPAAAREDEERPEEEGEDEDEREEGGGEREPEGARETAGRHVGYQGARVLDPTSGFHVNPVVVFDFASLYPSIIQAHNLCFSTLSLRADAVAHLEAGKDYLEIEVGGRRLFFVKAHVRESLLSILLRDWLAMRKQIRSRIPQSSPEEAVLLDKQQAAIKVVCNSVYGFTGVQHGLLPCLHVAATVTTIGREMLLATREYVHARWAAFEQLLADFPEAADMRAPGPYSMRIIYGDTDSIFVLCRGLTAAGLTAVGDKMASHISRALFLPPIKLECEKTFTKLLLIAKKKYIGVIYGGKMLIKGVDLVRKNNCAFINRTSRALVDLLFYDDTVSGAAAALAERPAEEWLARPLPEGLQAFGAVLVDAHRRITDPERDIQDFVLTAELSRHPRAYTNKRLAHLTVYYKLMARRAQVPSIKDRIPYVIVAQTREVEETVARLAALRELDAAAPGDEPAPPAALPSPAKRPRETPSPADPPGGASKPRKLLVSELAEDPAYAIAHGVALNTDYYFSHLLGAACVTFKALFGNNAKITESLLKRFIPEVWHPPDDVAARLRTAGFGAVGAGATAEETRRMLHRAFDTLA
VZV Polymerase, sequence (P09252 whole entry): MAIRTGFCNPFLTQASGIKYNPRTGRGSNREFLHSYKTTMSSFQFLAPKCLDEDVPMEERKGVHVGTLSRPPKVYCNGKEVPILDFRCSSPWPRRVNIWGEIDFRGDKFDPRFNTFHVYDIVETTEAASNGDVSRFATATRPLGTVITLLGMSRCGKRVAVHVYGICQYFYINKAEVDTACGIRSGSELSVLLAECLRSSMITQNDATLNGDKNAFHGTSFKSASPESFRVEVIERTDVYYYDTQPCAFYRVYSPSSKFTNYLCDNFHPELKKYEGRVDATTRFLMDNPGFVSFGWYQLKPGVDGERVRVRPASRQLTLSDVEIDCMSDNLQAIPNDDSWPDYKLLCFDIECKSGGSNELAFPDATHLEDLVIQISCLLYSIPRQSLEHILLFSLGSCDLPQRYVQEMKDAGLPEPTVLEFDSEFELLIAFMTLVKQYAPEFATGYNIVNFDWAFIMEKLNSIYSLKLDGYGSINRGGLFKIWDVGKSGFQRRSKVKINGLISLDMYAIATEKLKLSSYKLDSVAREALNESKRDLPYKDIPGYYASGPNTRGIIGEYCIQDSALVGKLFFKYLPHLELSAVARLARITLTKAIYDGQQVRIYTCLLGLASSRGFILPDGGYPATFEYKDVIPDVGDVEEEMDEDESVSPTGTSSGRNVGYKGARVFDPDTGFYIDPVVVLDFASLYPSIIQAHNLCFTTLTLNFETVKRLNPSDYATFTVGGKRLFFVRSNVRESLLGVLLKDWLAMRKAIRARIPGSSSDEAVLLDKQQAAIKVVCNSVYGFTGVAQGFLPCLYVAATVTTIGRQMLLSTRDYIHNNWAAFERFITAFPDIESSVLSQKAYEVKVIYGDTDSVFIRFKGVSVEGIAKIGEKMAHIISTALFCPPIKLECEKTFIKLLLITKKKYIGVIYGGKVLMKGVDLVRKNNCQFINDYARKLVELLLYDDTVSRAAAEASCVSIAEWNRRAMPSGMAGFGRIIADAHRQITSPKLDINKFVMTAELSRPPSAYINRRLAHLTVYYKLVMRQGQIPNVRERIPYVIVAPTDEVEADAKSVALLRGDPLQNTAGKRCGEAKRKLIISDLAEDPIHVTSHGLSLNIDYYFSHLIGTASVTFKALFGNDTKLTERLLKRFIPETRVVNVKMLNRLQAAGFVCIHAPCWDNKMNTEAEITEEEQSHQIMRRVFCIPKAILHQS

As usually defined, the IC50 is the point on the concentration scale where inhibition reaches its midpoint. Higher therefore signals weaker potency. Consider `CNCc1cc2cc(CN3CCOCC3)cc3c(=O)c(C(=O)NCc4ccc(Cl)cc4)cn1c23` [Example 20, N-(4-Chlorobenzyl)-2-[(methylamino)methyl]-8-(4-morpholinylmethyl)-6-oxo-6H-pyrrolo[3,2,1-ij]quinoline-5-carboxamide], for which, on CMV Polymerase, the 50% inhibitory concentration (IC50) amounted to 0.49 µM.

The term melting point denotes the temperature of the solid-liquid transition. As for `COCc1cc2cc(CN3CCOCC3)cc3c(=O)c(C(=O)NCc4ccc(Cl)cc4)cn1c23` [Example 17, N-(4-Chlorobenzyl)-2-(methoxymethyl)-8-(4-morpholinylmethyl)-6-oxo-6H-pyrrolo[3,2,1-ij]quinoline-5-carboxamide], the melting point was 157 to 159 °C. 0.54 µM corresponded to half-maximal inhibition against CMV Polymerase (IC50).

`O=C(NCc1ccc(Cl)cc1)c1cn2c(CCCN3CCOCC3)cc3cc(CN4CCOCC4)cc(c1=O)c32` [Example 11, N-(4-Chlorobenzyl)-8-(morpholin-4-ylmethyl)-2-(3-morpholin-4-ylpropyl)-6-oxo-6H-pyrrolo[3,2,1-ij]quinoline-5-carboxamide]: half-maximal inhibition on CMV Polymerase (IC50) was put at 3.57 µM.

As to `CN(C)Cc1cc2cc(CN3CCOCC3)cc3c(=O)c(C(=O)NCc4ccc(Cl)cc4)cn1c23` [Example 21, N-(4-Chlorobenzyl)-2-[(dimethylamino)methyl]-8-(4-morpholinylmethyl)-6-oxo-6H-pyrrolo[3,2,1-ij]quinoline-5-carboxamide], on CMV Polymerase, the IC50 came to 0.62 µM. This IC50 is about 5.8-fold lower than that of the compound before.

As for `CN1CCN(CCc2cc3cc(CN4CCOCC4)cc4c(=O)c(C(=O)NCc5ccc(Cl)cc5)cn2c34)CC1` [Example 7, N-(4-Chlorobenzyl)-2-[2-(4-methylpiperazin-1-yl)ethyl]-8-(morpholin-4-ylmethyl)-6-oxo-6H-pyrrolo[3,2,1-ij]quinoline-5-carboxamide], at CMV Polymerase, half-maximal inhibition (IC50) required 1.76 µM.

As to `NC(=O)NCc1cc2cc(CN3CCOCC3)cc3c(=O)c(C(=O)NCc4ccc(Cl)cc4)cn1c23` [Example 15, 2-{[(Aminocarbonyl)amino]methyl}-N-(4-chlorobenzyl)-8-(4-morpholinylmethyl)-6-oxo-6H-pyrrolo[3,2,1-ij]quinoline-5-carboxamide], the melting point was 250 to 252 °C. On CMV Polymerase, this compound registered a 50% inhibitory concentration (IC50) of 0.41 µM.

With `O=C(NCc1ccc(Cl)cc1)c1cn2c(CSc3ccccc3)cc3cc(CN4CCOCC4)cc(c1=O)c32` [Example 19, N-(4-Chlorobenzyl)-8-(4-morpholinylmethyl)-6-oxo-2-[(phenylsulfanyl)methyl]-6H-pyrrolo[3,2,1-ij]quinoline-5-carboxamide], the melting point was 173 to 175 °C. The compound also had an IC50 at CMV Polymerase of 0.68 µM.

Regarding `O=C(NCc1ccc(Cl)cc1)c1cn2c(CN3CCS(=O)(=O)CC3)cc3cc(CN4CCOCC4)cc(c1=O)c32` [Example 12, N-(4-Chlorobenzyl)-2-[(1,1-dioxido-4-thiomorpholinyl)methyl]-8-(4-morpholinylmethyl)-6-oxo-6H-pyrrolo[3,2,1-ij]quinoline-5-carboxamide], the melting point was 236 to 239 °C. The compound also registered an IC50 against CMV Polymerase of 0.36 µM.

`O=C(NCc1ccc(Cl)cc1)c1cn2c(CO)cc3cccc(c1=O)c32` [Example 1, N-(4-Chlorobenzyl)-2-(hydroxymethyl)-6-oxo-6H-pyrrolo[3,2,1-ij]quinoline-5-carboxamide] had a melting point of 211 to 213 °C. In addition, on CMV Polymerase, it took 1.2 µM to reach half-maximal inhibition (IC50).

`O=C(NCc1ccc(Cl)cc1)c1cn2c(CCO)cc3cc(CC4CCOCC4)cc(c1=O)c32` [Example 23, N-(4-Chlorobenzyl)-2-(2-hydroxyethyl)-6-oxo-8-(tetrahydro-2H-pyran-4-ylmethyl)-6H-pyrrolo[3,2,1-ij]quinoline-5-carboxamide] yielded a melting point of 204 to 206 °C. Half-maximal inhibition at HSV Polymerase (IC50) required 0.14 µM. Moreover, the concentration for half-maximal inhibition (IC50) at CMV Polymerase worked out at 0.13 µM. The compound also gave a half-inhibitory concentration (IC50) against VZV Polymerase of 0.1 µM.

The compound `C[C@@H](O)c1cc2cc(CN3CCOCC3)cc3c(=O)c(C(=O)NCc4ccc(Cl)cc4)cn1c23` [Example 16, N-(4-Chlorobenzyl)-2-[(IR)-1-hydroxyethyl]-8-(4-morpholinylmethyl)-6-oxo-6H-pyrrolo[3,2,1-ij]quinoline-5-carboxamide] showed a melting point of 155 to 159 °C. Moreover, at CMV Polymerase, it took 0.26 µM to reach half-maximal inhibition (IC50).

Consider `CCN(CC)CCc1cc2cc(CN3CCOCC3)cc3c(=O)c(C(=O)NCc4ccc(Cl)cc4)cn1c23` [Example 6, N-(4-Chlorobenzyl)-2-[2-(diethylamino)ethyl]-8-(4-morpholinylmethyl)-6-oxo-6H-pyrrolo[3,2,1-ij]quinoline-5-carboxamide], for which the IC50 against CMV Polymerase was found to be 2.43 µM.

On to `O=C(NCc1ccc(Cl)cc1)c1cn2c(CCO)cc3cccc(c1=O)c32` [Example 22, N-(4-Chlorobenzyl)-2-(2-hydroxyethyl)-6-oxo-6H-pyrrolo[3,2,1-ij]quinoline-5-carboxamide], for which the melting point is 190 to 192 °C. The compound also showed a 50% inhibitory concentration (IC50) against CMV Polymerase of 1.2 µM.

`CCSCc1cc2cc(CN3CCOCC3)cc3c(=O)c(C(=O)NCc4ccc(Cl)cc4)cn1c23` [Example 18, N-(4-Chlorobenzyl)-2-[(ethylsulfanyl)methyl]-8-(4-morpholinylmethyl)-6-oxo-6H-pyrrolo[3,2,1-ij]quinoline-5-carboxamide] registered a melting point of 177 to 178 °C. Moreover, the IC50 on CMV Polymerase was found to be 0.58 µM.

Turning to `CCC1CCCCN1CCc1cc2cc(CN3CCOCC3)cc3c(=O)c(C(=O)NCc4ccc(Cl)cc4)cn1c23` (stereo not shown) [Example 8, N-(4-Chlorobenzyl)-2-[2-(2-ethylpiperidin-1-yl)ethyl]-8-(morpholin-4-ylmethyl)-6-oxo-6H-pyrrolo[3,2,1-ij]quinoline-5-carboxamide], half-maximal inhibition on CMV Polymerase (IC50) required 1.92 µM.

Compound `O=C(NCc1ccc(Cl)cc1)c1cn2c(CCN3CCCCC3)cc3cc(CN4CCOCC4)cc(c1=O)c32` [Example 10, N-(4-Chlorobenzyl)-8-(morpholin-4-ylmethyl)-6-oxo-2-(2-piperidin-1-ylethyl)-6H-pyrrolo[3,2,1-ij]quinoline-5-carboxamide] registered an IC50 against CMV Polymerase of 2.3 µM.

As to `O=C(NCc1ccc(Cl)cc1)c1cn2c(CO)cc3cc(CN4CCOCC4)cc(c1=O)c32` [Example 3, N-(4-Chlorobenzyl)-2-(hydroxymethyl)-8-(4-morpholinylmethyl)-6-oxo-6H-pyrrolo[3,2,1-ij]quinoline-5-carboxamide], the melting point lay within 210 to 212 °C. At HSV Polymerase, this compound came in with an IC50 of 0.51 µM. Also, the IC50 against CMV Polymerase is 0.53 µM. The same compound displayed an IC50 against VZV Polymerase of 0.25 µM.

The compound `CN1CCN(CCCc2cc3cc(CN4CCOCC4)cc4c(=O)c(C(=O)NCc5ccc(Cl)cc5)cn2c34)CC1` [Example 9, N-(4-Chlorobenzyl)-2-[3-(4-methylpiperazin-1-yl)propyl]-8-(morpholin-4-ylmethyl)-6-oxo-6H-pyrrolo[3,2,1-ij]quinoline-5-carboxamide] registered an IC50 against CMV Polymerase of 3.44 µM. That is a single-digit micromolar value.

As to `O=C(NCc1ccc(Cl)cc1)c1cn2c(CO)cc3cc(CC4CCOCC4)cc(c1=O)c32` [Example 2, N-(4-Chlorobenzyl)-2-(hydroxymethyl)-6-oxo-8-(tetrahydro-2H-pyran-4-ylmethyl)-6H-pyrrolo[3,2,1-ij]quinoline-5-carboxamide], the melting point was 196 to 198 °C. On HSV Polymerase, the midpoint of inhibition, the IC50, lay at 0.2 µM. The compound also gave a half-inhibitory concentration (IC50) on CMV Polymerase of 0.21 µM. Also, the midpoint of inhibition on VZV Polymerase, the IC50, lay at 0.16 µM.

The compound `O=C(NCc1ccc(Cl)cc1)c1cn2c(CN3CCS(=O)(=O)CC3)c(I)c3cc(CN4CCOCC4)cc(c1=O)c32` [Example 13, N-(4-Chlorobenzyl)-2-[(1,1-dioxido-4-thiomorpholinyl)methyl]-1-iodo-8-(4-morpholinylmethyl)-6-oxo-6H-pyrrolo[3,2,1-ij]quinoline-5-carboxamide] gave a melting point of 244 to 246 °C. Moreover, half-maximal inhibition on CMV Polymerase (IC50) was put at 0.84 µM.

Take `O=C(NCc1ccc(Cl)cc1)c1cn2c(CCCO)cc3cc(CN4CCOCC4)cc(c1=O)c32` [Example 14, N-(4-Chlorobenzyl)-2-(3-hydroxypropyl)-8-(4-morpholinylmethyl)-6-oxo-6H-pyrrolo[3,2,1-ij]quinoline-5-carboxamide]: the melting point is 171 to 174 °C. On CMV Polymerase, this compound displayed an IC50 of 0.32 µM.
